The target of this test is human salt-induced kinase 3 (SIK3) (Homo sapiens, UniProt Q9Y2K2). Kind of test: KinaseProfiler radiometric protein kinase assay (Eurofins), ATP at Km. The format is biochemical.

We go through one compound from article PMC10133576, “Interactions between curcumin and human salt-induced kinase 3 elucidated from computational tools and experimental methods” (Frontiers in Pharmacology, 2023).

human salt-induced kinase 3 (SIK3), sequence (Q9Y2K2 whole entry): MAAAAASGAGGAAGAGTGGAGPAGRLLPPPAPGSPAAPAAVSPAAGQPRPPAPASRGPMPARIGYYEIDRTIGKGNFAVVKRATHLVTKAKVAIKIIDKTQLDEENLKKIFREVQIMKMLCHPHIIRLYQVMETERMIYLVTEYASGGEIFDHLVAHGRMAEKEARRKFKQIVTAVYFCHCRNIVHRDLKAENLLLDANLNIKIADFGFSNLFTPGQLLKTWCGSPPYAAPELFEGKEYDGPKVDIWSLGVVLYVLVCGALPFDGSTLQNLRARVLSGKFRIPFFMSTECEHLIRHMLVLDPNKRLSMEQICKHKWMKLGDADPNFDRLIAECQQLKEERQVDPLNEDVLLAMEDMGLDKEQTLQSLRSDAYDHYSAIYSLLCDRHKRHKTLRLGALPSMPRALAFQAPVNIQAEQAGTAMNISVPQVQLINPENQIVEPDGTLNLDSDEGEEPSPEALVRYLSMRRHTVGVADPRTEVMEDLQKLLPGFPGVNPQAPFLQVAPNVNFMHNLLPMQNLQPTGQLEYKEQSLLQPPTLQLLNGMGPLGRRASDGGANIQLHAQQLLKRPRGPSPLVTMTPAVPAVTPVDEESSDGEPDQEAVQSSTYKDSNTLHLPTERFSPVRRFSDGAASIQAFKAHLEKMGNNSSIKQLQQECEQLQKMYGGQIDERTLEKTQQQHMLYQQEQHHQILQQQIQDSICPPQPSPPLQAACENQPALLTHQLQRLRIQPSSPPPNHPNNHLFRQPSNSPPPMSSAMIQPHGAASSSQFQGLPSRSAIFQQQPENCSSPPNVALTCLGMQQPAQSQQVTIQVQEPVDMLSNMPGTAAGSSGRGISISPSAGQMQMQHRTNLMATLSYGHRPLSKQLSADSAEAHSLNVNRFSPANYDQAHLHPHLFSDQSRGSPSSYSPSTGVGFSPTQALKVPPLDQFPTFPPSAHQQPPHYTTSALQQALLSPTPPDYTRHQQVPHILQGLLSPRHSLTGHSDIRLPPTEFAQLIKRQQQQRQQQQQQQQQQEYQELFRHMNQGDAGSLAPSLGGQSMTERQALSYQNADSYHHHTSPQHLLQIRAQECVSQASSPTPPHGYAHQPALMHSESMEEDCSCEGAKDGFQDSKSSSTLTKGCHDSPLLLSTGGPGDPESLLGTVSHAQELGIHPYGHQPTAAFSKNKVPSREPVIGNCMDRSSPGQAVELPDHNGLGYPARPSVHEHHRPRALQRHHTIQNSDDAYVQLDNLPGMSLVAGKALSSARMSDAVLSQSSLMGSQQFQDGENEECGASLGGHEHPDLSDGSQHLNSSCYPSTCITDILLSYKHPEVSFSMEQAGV

As usually defined, the IC50 is the concentration that inhibits the measured activity by half. Turning to `COc1cc(/C=C/C(=O)CC(=O)/C=C/c2ccc(O)c(OC)c2)ccc1O` [curcumin], the IC50 worked out at 131 nM.
